Measurements taken from patent US8309734B2 (Hoffmann-La Roche Inc., priority 2008, dated 2012).

target: T1, human GPBAR1 receptor (Homo sapiens, UniProt Q8TDU6); assay: functional cAMP assay in CHO-dhfr(minus) cells expressing human GPBAR1 receptors; format: cell-based; details: cAMP increase (TR-FRET) in CHO-dhfr(minus) cells expressing human GPBAR1; compounds incubated 30 min at 30° C.
T1 construct: expressed in transfected cells
T1 sequence (Q8TDU6 1-330): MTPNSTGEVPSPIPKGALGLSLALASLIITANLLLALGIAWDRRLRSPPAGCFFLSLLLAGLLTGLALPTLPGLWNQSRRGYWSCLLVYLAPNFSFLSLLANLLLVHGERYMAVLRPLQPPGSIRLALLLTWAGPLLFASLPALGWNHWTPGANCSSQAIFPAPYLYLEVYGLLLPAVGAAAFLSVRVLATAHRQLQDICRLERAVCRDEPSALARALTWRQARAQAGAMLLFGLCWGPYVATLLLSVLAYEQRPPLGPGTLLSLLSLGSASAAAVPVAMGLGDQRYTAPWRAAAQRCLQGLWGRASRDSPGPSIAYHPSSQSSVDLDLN
Experimental: The final clone was verified by DNA sequence analysis. The plasmid was transfected into CHO cells deficient in dihydrofolate reductase activity (CHO-dhfr-) using Lipofectamine plus (Invitrogen). Clones were isolated in limited dilution conditions and identified by activities in the cAMP assay using lithocholic acid as agonist.
The growth medium was exchanged with Krebs Ringer Bicarbonate buffer with 1 mM IBMX and incubated at 30° C. for 30 mM. Compounds were added to a final assay volume of 100 μl and incubated for 30 min at 30° C. […] The time-resolved energy transfer is measured by a TRF reader (Evotec Technologies GmbH, Hamburg Germany), equipped with a ND:YAG laser as excitation source. The plate is measured twice with the excitation at 355 nm and at the emission with a delay of 100 ns and a gate of 100 ns, total exposure time 10s at 730 (bandwith 30 nm) or 645 nm (bandwith 75 nm), respectively.
EC50 values were determined using Activity Base analysis (ID Business Solution, Limited). […] Specificity for GPBAR1 was tested in non-transfected CHO cells in the same assay as above.

Row | Compound | EC50 [nM]
1 | O=C(c1cccnc1Oc1cccc(OC(F)(F)F)c1)N1CCCc2ccccc21 [Example 16, (3,4-Dihydro-2H-quinolin-1-yl)-[2-(3-trifluoromethoxy-phenoxy)-pyridin-3-yl]-methanone] | 1920
2 | Cc1ccccc1N(C)C(=O)c1ccncc1Oc1ccc(Cl)cc1Cl [Example 99, 3-(2,4-Dichloro-phenoxy)-N-methyl-N-o-tolyl-isonicotinamide] | 388
3 | COC(=O)CCCCCN1CCN(C(=O)c2cc(F)cnc2Oc2cc(Cl)ccc2Cl)c2ccccc21 [Example 160, 6-{4-[2-(2,5-Dichloro-phenoxy)-5-fluoro-pyridine-3-carbonyl]-3,4-dihydro-2H-quinoxalin-1-yl}-hexanoic acid methyl ester] | 724
4 | COc1ccc(C)cc1N(C)C(=O)c1cccnc1Oc1cc(Cl)ccc1Cl [Example 59, 2-(2,5-Dichloro-phenoxy)-N-(2-methoxy-5-methyl-phenyl)-N-methyl-nicotinamide] | 1550
5 | Cc1cc(F)c2c(c1)CCCN2C(=O)c1cccnc1Oc1cc(Cl)ccc1Cl [Example 68, [2-(2,5-Dichloro-phenoxy)-pyridin-3-yl]-(8-fluoro-6-methyl-3,4-dihydro-2H-quinolin-1-yl)-methanone] | 837
6 | Cc1cc(Cl)ccc1N(C)C(=O)c1cccnc1Oc1cc(Cl)ccc1Cl [Example 56, N-(4-Chloro-2-methyl-phenyl)-2-(2,5-dichloro-phenoxy)-N-methyl-nicotinamide] | 1390
7 | O=C(c1cccnc1Oc1cc(Cl)c(Cl)cc1Cl)N1CCCc2ccccc21 [Example 14, (3,4-Dihydro-2H-quinolin-1-yl)-[2-(2,4,5-trichloro-phenoxy)-pyridin-3-yl]-methanone] | 236
8 | CC1CCc2ccccc2N1C(=O)c1cc(F)cnc1Oc1cc(Cl)ccc1Cl (stereo not shown) [Example 80, [2-(2,5-Dichloro-phenoxy)-5-fluoro-pyridin-3-yl]-(2-methyl-3,4-dihydro-2H-quinolin-1-yl)-methanone] | 630
9 | COC(=O)c1cc(Cl)c(Oc2ncccc2C(=O)N2CCN(C3CC3)c3ccccc32)cc1Cl [Example 182, 2,5-Dichloro-4-[3-(4-cyclopropyl-3,4-dihydro-2H-quinoxaline-1-carbonyl)-pyridin-2-yloxy]-benzoic acid methyl ester] | 181
10 | O=C(c1cc(F)ccc1Oc1cc(Cl)ccc1Cl)N1CCOc2ccccc21 [Example 117, [2-(2,5-Dichloro-phenoxy)-5-fluoro-phenyl]-(2,3-dihydro-benzo[1,4]oxazin-4-yl)-methanone] | 572
11 | COc1cccc2c1N(C(=O)c1cccnc1Oc1cc(Cl)ccc1Cl)CCC2 [Example 70, [2-(2,5-Dichloro-phenoxy)-pyridin-3-yl]-(8-methoxy-3,4-dihydro-2H-quinolin-1-yl)-methanone] | 561
12 | COC(=O)C1CCN(C(=O)c2cc(F)cnc2Oc2cc(Cl)ccc2Cl)c2ccccc21 (stereo not shown) [Example 148, 1-[2-(2,5-Dichloro-phenoxy)-5-fluoro-pyridine-3-carbonyl]-1,2,3,4-tetrahydro-quinoline-4-carboxylic acid methyl ester] | 1960
13 | CN(C(=O)c1cccnc1Oc1cc(Cl)ccc1Cl)c1ccccc1C#N [Example 62, N-(2-Cyano-phenyl)-2-(2,5-dichloro-phenoxy)-N-methyl-nicotinamide] | 820
14 | O=C1CCN(C(=O)c2cccnc2Oc2cc(Cl)ccc2Cl)c2ccccc21 [Example 128, 1-[2-(2,5-Dichloro-phenoxy)-pyridine-3-carbonyl]-2,3-dihydro-1H-quinolin-4-one] | 918
15 | CN(C(=O)c1cccnc1Oc1cc(Cl)ccc1Cl)c1ccccc1-c1ccnn1C [Example 133, 2-(2,5-Dichloro-phenoxy)-N-methyl-N-[2-(2-methyl-2H-pyrazol-3-yl)-phenyl]-nicotinamide] | 1970
16 | O=C(c1cccnc1Oc1cc(Cl)ccc1Cl)N1CCCc2ccc(Cl)cc21 [Example 33, (7-Chloro-3,4-dihydro-2H-quinolin-1-yl)-[2-(2,5-dichloro-phenoxy)-pyridin-3-yl]-methanone] | 203
17 | O=C(O)CCc1ccc(S(=O)(=O)N2CCN(C(=O)c3cccnc3Oc3cc(Cl)ccc3Cl)c3ccccc32)cc1 [Example 143, 3-(4-{4-[2-(2,5-Dichloro-phenoxy)-pyridine-3-carbonyl]-3,4-dihydro-2H-quinoxaline-1-sulfonyl}-phenyl)-propionic acid] | 745

Compounds with a lower EC50, results first:

Row | EC50 [nM] | Compound
18 | 155 | CN(C(=O)c1cccnc1Oc1cc(Cl)ccc1Cl)c1c(F)cccc1F [Example 64, 2-(2,5-Dichloro-phenoxy)-N-(2,6-difluoro-phenyl)-N-methyl-nicotinamide]
19 | 155 | O=C(c1cc(F)cnc1Oc1cc(Cl)ccc1Cl)N1Cc2cccn2-c2ccccc21 [Example 149]
20 | 127 | O=C(c1cccnc1Oc1ccc(F)c(Cl)c1)N1CCCc2cc(F)c(F)cc21 [Example 79, [2-(3-Chloro-4-fluoro-phenoxy)-pyridin-3-yl]-(6,7-difluoro-3,4-dihydro-2H-quinolin-1-yl)-methanone]
21 | 116 | Cc1cccc(C)c1N(C)C(=O)c1cccnc1Oc1cc(Cl)ccc1Cl [Example 52, 2-(2,5-Dichloro-phenoxy)-N-(2,6-dimethyl-phenyl)-N-methyl-nicotinamide]
22 | 91 | O=C(O)CCNC(=O)CCCc1cc(Cl)c(Oc2ncccc2C(=O)N2CCN(C3CC3)c3ccccc32)cc1Cl [Example 181, 3-(4-{2,5-Dichloro-4-[3-(4-cyclopropyl-3,4-dihydro-2H-quinoxaline-1-carbonyl)-pyridin-2-yloxy]-phenyl}-butyrylamino)-propionic acid]
23 | 78 | O=C(c1cc(F)cnc1Oc1cc(Cl)ccc1Cl)N1CCOc2ccccc21 [Example 81, [2-(2,5-Dichloro-phenoxy)-5-fluoro-pyridin-3-yl]-(2,3-dihydro-benzo[1,4]oxazin-4-yl)-methanone]
24 | 69 | O=C(O)c1ccc(CCc2cc(Cl)c(Oc3ncccc3C(=O)N3CCN(C4CC4)c4ccccc43)cc2Cl)cc1 [Example 170, 4-(2-{2,5-Dichloro-4-[3-(4-cyclopropyl-3,4-dihydro-2H-quinoxaline-1-carbonyl)-pyridin-2-yloxy]-phenyl}-ethyl)-benzoic acid]
25 | 58 | O=C(c1cccnc1Oc1cc(Cl)ccc1Cl)N1CCCc2ccc(F)cc21 [Example 34, [2-(2,5-Dichloro-phenoxy)-pyridin-3-yl]-(7-fluoro-3,4-dihydro-2H-quinolin-1-yl)-methanone]
26 | 58 | O=C(c1cc(F)cnc1Oc1cc(Cl)ccc1Cl)N1CCN(C2CCC2)c2ccccc21 [Example 150, (4-Cyclobutyl-3,4-dihydro-2H-quinoxalin-1-yl)-[2-(2,5-dichloro-phenoxy)-5-fluoro-pyridin-3-yl]-methanone]
27 | 57 | Cc1ccccc1N(C)C(=O)c1ccncc1Oc1cc(Cl)ccc1Cl [Example 93, 3-(2,5-Dichloro-phenoxy)-N-methyl-N-o-tolyl-isonicotinamide]
28 | 44 | O=C(c1cccnc1Oc1cc(Cl)ccc1Cl)N1CCCc2cc(F)cc(F)c21 [Example 44, [2-(2,5-Dichloro-phenoxy)-pyridin-3-yl]-(6,8-difluoro-3,4-dihydro-2H-quinolin-1-yl)-methanone]
29 | 41 | O=C(O)CCNC(=O)CCc1cc(Cl)c(Oc2ncccc2C(=O)N2CCN(C3CC3)c3ccccc32)cc1Cl [Example 179, 3-(3-{2,5-Dichloro-4-[3-(4-cyclopropyl-3,4-dihydro-2H-quinoxaline-1-carbonyl)-pyridin-2-yloxy]-phenyl}-propionylamino)-propionic acid]
30 | 29 | O=C(c1cccnc1Oc1cc(Cl)ccc1Cl)N1CCSc2ccccc21 [Example 39, [2-(2,5-Dichloro-phenoxy)-pyridin-3-yl]-(2,3-dihydro-benzo[1,4]thiazin-4-yl)-methanone]
31 | 22 | O=C(c1ccccc1Oc1cc(Cl)ccc1Cl)N1CCN(C2CC2)c2ccccc21 [Example 184, (4-Cyclopropyl-3,4-dihydro-2H-quinoxalin-1-yl)-[2-(2,5-dichloro-phenoxy)-phenyl]-methanone]
32 | 20 | COc1ccccc1N(C)C(=O)c1cccnc1Oc1cc(Cl)ccc1Cl [Example 42, 2-(2,5-Dichloro-phenoxy)-N-(2-methoxy-phenyl)-N-methyl-nicotinamide]
33 | 10 | O=C(c1cccnc1Oc1cc(Cl)ccc1Cl)N1CCN(C2CCC2)c2ccccc21 [Example 126, (4-Cyclobutyl-3,4-dihydro-2H-quinoxalin-1-yl)-[2-(2,5-dichloro-phenoxy)-pyridin-3-yl]-methanone]
34 | 7 | O=C(c1ccncc1Oc1cc(Cl)ccc1Cl)N1CCCc2ccccc21 [Example 89, [3-(2,5-Dichloro-phenoxy)-pyridin-4-yl]-(3,4-dihydro-2H-quinolin-1-yl)-methanone]
